# Laboratory results taken from the supplement of paper PMC10627819.
# Experiments:
# [1] = tested on: S. aureus Newman; test: fitness (endpoint OD595 vs no drug) (fraction); higher = more growth
# Procedure, shortened: (§1)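 Background-subtracted growth curves were the basis for fitness, taken as the optical density at entry into stationary phase over the robust mean of no-drug control wells. A cap of 1 was applied. The curves came from OD595 readings every 30 min for 14 h at 37 °C, in 384-well plates seeded at OD595 0.01 with 30 µl, or 55 µl for S. pneumoniae.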
# [2] = tested on: S. pneumoniae D39V; test: as above
# Procedure, shortened: as §1
# [3] = tested on: B. subtilis 168; test: as above
# Procedure, shortened: as §1
# [4] = tested on: S. aureus DSM 20231; test: Bliss interaction score (quartile over a dose matrix) (fitness difference); higher = more antagonism (negative = synergy)
# Procedure, shortened: (§2)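 The Bliss score is observed fitness minus expected fitness, where the expected value is the product of single-drug fitness values inferred from combination data. Fitness is OD595 at entry into stationary phase normalised to the plate's robust no-drug mean and capped at 1. Scores are reported as quartiles spanning technical, biological and donor/recipient replicates.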
# [5] = tested on: S. aureus Newman; test: as above
# Procedure, shortened: as §2
# [6] = tested on: S. pneumoniae D39V; test: as above
# Procedure, shortened: as §2
# [7] = tested on: B. subtilis 168; test: as above
# Procedure, shortened: as §2
# [8] = first compound 0.125 µg/mL, partner 0.039 µg/mL
# [9] = first compound 0.125 µg/mL, partner 0.078 µg/mL
# [10] = first compound 0.125 µg/mL, partner 0.156 µg/mL
# 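Wherever Bliss interaction score (quartile over a dose matrix) is given: first quartile when negative (synergy) and third quartile when positive (antagonism).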
smiles,measurement,setting,value
CCC[C@@H]1C[C@@H](C(=O)N[C@@H]([C@H]2O[C@H](SC)[C@H](O)[C@@H](O)[C@H]2O)[C@H](C)Cl)N(C)C1 [Clindamycin] + CC(C1CCC(C(O1)OC2C(CC(C(C2O)OC3C(C(C(CO3)(C)O)NC)O)N)N)N)NC [Gentamicin],fitness,"[1]; first compound 0.0312 µg/mL, partner 0.375 µg/mL, one replicate, main component drawn",0.709
same,fitness,"[1]; first compound 0.0312 µg/mL, partner 0.5 µg/mL, main component drawn",0.839
same,fitness,"[1]; first compound 0.0312 µg/mL, partner 0.75 µg/mL, one replicate, main component drawn",0.705
same,fitness,"[1]; first compound 0.0312 µg/mL, partner 1.5 µg/mL, one replicate, main component drawn",0.576
same,fitness,"[1]; first compound 0.0312 µg/mL, partner 2 µg/mL, main component drawn",0.988
same,fitness,"[1]; first compound 0.0625 µg/mL, partner 0.375 µg/mL, one replicate, main component drawn",0.55
same,fitness,"[1]; first compound 0.0625 µg/mL, partner 0.75 µg/mL, one replicate, main component drawn",0.542
same,fitness,"[1]; first compound 0.0625 µg/mL, partner 1.5 µg/mL, one replicate, main component drawn",0.254
same,fitness,"[1]; first compound 0.125 µg/mL, partner 0.375 µg/mL, one replicate, main component drawn",0.138
same,fitness,"[1]; first compound 0.125 µg/mL, partner 0.75 µg/mL, one replicate, main component drawn",0.177
same,fitness,"[1]; first compound 0.125 µg/mL, partner 1.5 µg/mL, one replicate, main component drawn",0.119
same,fitness,"[2]; first compound 0.0125 µg/mL, partner 2 µg/mL, main component drawn",0.781
same,fitness,"[2]; first compound 0.0125 µg/mL, partner 4 µg/mL, main component drawn",0.812
same,fitness,"[2]; first compound 0.0125 µg/mL, partner 8 µg/mL, main component drawn",0.768
same,fitness,"[2]; first compound 0.015 µg/mL, partner 2 µg/mL, main component drawn",0.732
same,fitness,"[2]; first compound 0.015 µg/mL, partner 4 µg/mL, main component drawn",0.698
same,fitness,"[2]; first compound 0.015 µg/mL, partner 8 µg/mL, main component drawn",0.63
same,fitness,"[2]; first compound 0.025 µg/mL, partner 2 µg/mL, main component drawn",0.528
same,fitness,"[2]; first compound 0.025 µg/mL, partner 4 µg/mL, main component drawn",0.513
same,fitness,"[2]; first compound 0.025 µg/mL, partner 8 µg/mL, main component drawn",0.454
same,fitness,"[2]; first compound 0.03 µg/mL, partner 2 µg/mL, main component drawn",0.454
same,fitness,"[2]; first compound 0.03 µg/mL, partner 4 µg/mL, main component drawn",0.425
same,fitness,"[2]; first compound 0.03 µg/mL, partner 8 µg/mL, main component drawn",0.405
same,fitness,"[2]; first compound 0.05 µg/mL, partner 2 µg/mL, main component drawn",0.239
same,fitness,"[2]; first compound 0.05 µg/mL, partner 4 µg/mL, main component drawn",0.254
same,fitness,"[2]; first compound 0.05 µg/mL, partner 8 µg/mL, main component drawn",0.224
same,fitness,"[2]; first compound 0.06 µg/mL, partner 2 µg/mL, main component drawn",0.299
same,fitness,"[2]; first compound 0.06 µg/mL, partner 4 µg/mL, main component drawn",0.249
same,fitness,"[2]; first compound 0.06 µg/mL, partner 8 µg/mL, main component drawn",0.244
same,fitness,"[3]; first compound 0.0039 µg/mL, partner 0.0625 µg/mL, one replicate, main component drawn",0.962
same,fitness,"[3]; first compound 0.0039 µg/mL, partner 0.125 µg/mL, one replicate, main component drawn",0.995
same,fitness,"[3]; first compound 0.0039 µg/mL, partner 0.25 µg/mL, one replicate, main component drawn",0.94
same,fitness,"[3]; first compound 0.0078 µg/mL, partner 0.0625 µg/mL, one replicate, main component drawn",0.911
same,fitness,"[3]; first compound 0.0078 µg/mL, partner 0.125 µg/mL, one replicate, main component drawn",0.938
same,fitness,"[3]; first compound 0.0078 µg/mL, partner 0.25 µg/mL, one replicate, main component drawn",0.867
same,fitness,"[3]; first compound 0.0156 µg/mL, partner 0.0625 µg/mL, one replicate, main component drawn",0.828
same,fitness,"[3]; first compound 0.0156 µg/mL, partner 0.125 µg/mL, one replicate, main component drawn",0.839
same,fitness,"[3]; first compound 0.0156 µg/mL, partner 0.25 µg/mL, one replicate, main component drawn",0.791
same,fitness,"[3]; first compound 0.0625 µg/mL, partner 0.0625 µg/mL, main component drawn",0.52
same,fitness,"[3]; first compound 0.125 µg/mL, partner 0.0625 µg/mL, main component drawn",0.397
same,fitness,"[3]; first compound 0.125 µg/mL, partner 0.25 µg/mL, main component drawn",0.0596
same,fitness,"[3]; first compound 0.25 µg/mL, partner 0.25 µg/mL, main component drawn",0.0604
same,Bliss interaction score,[4]; main component drawn,0.0691
same,Bliss interaction score,[5]; main component drawn,0.148
same,Bliss interaction score,[6]; main component drawn,-0.0694
same,Bliss interaction score,[7]; main component drawn,0.192
CCC[C@@H]1C[C@@H](C(=O)N[C@@H]([C@H]2O[C@H](SC)[C@H](O)[C@@H](O)[C@H]2O)[C@H](C)Cl)N(C)C1 [Clindamycin] + CN(C)c1cc(NC(=O)CNC(C)(C)C)c(O)c2c1C[C@H]1C[C@H]3[C@H](N(C)C)C(O)=C(C(N)=O)C(=O)[C@@]3(O)C(O)=C1C2=O [Tigecycline],fitness,"[1]; first compound 0.0312 µg/mL, partner 0.039 µg/mL",0.708
same,fitness,"[1]; first compound 0.0312 µg/mL, partner 0.078 µg/mL",0.715
same,fitness,"[1]; first compound 0.0312 µg/mL, partner 0.156 µg/mL",0.709
same,fitness,[1]; [8],0.118
same,fitness,[1]; [9],0.112
same,fitness,[1]; [10],0.113
same,fitness,"[2]; first compound 0.0125 µg/mL, partner 0.325 µg/mL",0.668
same,fitness,"[2]; first compound 0.0125 µg/mL, partner 0.65 µg/mL",0.695
same,fitness,"[2]; first compound 0.0125 µg/mL, partner 1.3 µg/mL",0.652
same,fitness,"[2]; first compound 0.015 µg/mL, partner 0.65 µg/mL",0.753
same,fitness,"[2]; first compound 0.015 µg/mL, partner 1.3 µg/mL",0.755
same,fitness,"[2]; first compound 0.015 µg/mL, partner 2.6 µg/mL",0.815
same,fitness,"[2]; first compound 0.025 µg/mL, partner 0.325 µg/mL",0.503
same,fitness,"[2]; first compound 0.025 µg/mL, partner 0.65 µg/mL",0.461
same,fitness,"[2]; first compound 0.025 µg/mL, partner 1.3 µg/mL",0.442
same,fitness,"[2]; first compound 0.03 µg/mL, partner 0.65 µg/mL",0.653
same,fitness,"[2]; first compound 0.03 µg/mL, partner 1.3 µg/mL",0.66
same,fitness,"[2]; first compound 0.03 µg/mL, partner 2.6 µg/mL",0.673
same,fitness,"[2]; first compound 0.05 µg/mL, partner 0.325 µg/mL",0.233
same,fitness,"[2]; first compound 0.05 µg/mL, partner 0.65 µg/mL",0.2
same,fitness,"[2]; first compound 0.05 µg/mL, partner 1.3 µg/mL",0.189
same,fitness,"[2]; first compound 0.06 µg/mL, partner 0.65 µg/mL",0.551
same,fitness,"[2]; first compound 0.06 µg/mL, partner 1.3 µg/mL",0.557
same,fitness,"[2]; first compound 0.06 µg/mL, partner 2.6 µg/mL",0.539
same,fitness,"[3]; first compound 0.0039 µg/mL, partner 0.039 µg/mL, one replicate",0.986
same,fitness,"[3]; first compound 0.0039 µg/mL, partner 0.078 µg/mL, one replicate",≥ 1
same,fitness,"[3]; first compound 0.0039 µg/mL, partner 0.156 µg/mL, one replicate",0.906
same,fitness,"[3]; first compound 0.0078 µg/mL, partner 0.039 µg/mL, one replicate",0.866
same,fitness,"[3]; first compound 0.0078 µg/mL, partner 0.078 µg/mL, one replicate",0.88
same,fitness,"[3]; first compound 0.0078 µg/mL, partner 0.156 µg/mL, one replicate",0.81
same,fitness,"[3]; first compound 0.0156 µg/mL, partner 0.039 µg/mL, one replicate",0.862
same,fitness,"[3]; first compound 0.0156 µg/mL, partner 0.078 µg/mL, one replicate",0.831
same,fitness,"[3]; first compound 0.0156 µg/mL, partner 0.156 µg/mL, one replicate",0.908
same,fitness,"[3]; first compound 0.0625 µg/mL, partner 0.039 µg/mL",0.596
same,fitness,"[3]; first compound 0.0625 µg/mL, partner 0.078 µg/mL",0.537
same,fitness,"[3]; first compound 0.0625 µg/mL, partner 0.125 µg/mL, one replicate",0.809
same,fitness,"[3]; first compound 0.0625 µg/mL, partner 0.156 µg/mL",0.538
same,fitness,"[3]; first compound 0.0625 µg/mL, partner 0.25 µg/mL, one replicate",0.722
same,fitness,"[3]; first compound 0.0625 µg/mL, partner 0.5 µg/mL, one replicate",0.743
same,fitness,[3]; [8],0.387
same,fitness,[3]; [9],0.38
same,fitness,"[3]; first compound 0.125 µg/mL, partner 0.125 µg/mL, one replicate",0.656
same,fitness,[3]; [10],0.374
same,fitness,"[3]; first compound 0.125 µg/mL, partner 0.25 µg/mL, one replicate",0.575
same,fitness,"[3]; first compound 0.125 µg/mL, partner 0.5 µg/mL, one replicate",0.601
same,fitness,"[3]; first compound 0.25 µg/mL, partner 0.039 µg/mL",0.378
same,fitness,"[3]; first compound 0.25 µg/mL, partner 0.078 µg/mL",0.365
same,fitness,"[3]; first compound 0.25 µg/mL, partner 0.125 µg/mL, one replicate",0.44
same,fitness,"[3]; first compound 0.25 µg/mL, partner 0.156 µg/mL",0.369
same,fitness,"[3]; first compound 0.25 µg/mL, partner 0.25 µg/mL, one replicate",0.342
same,fitness,"[3]; first compound 0.25 µg/mL, partner 0.5 µg/mL, one replicate",0.378
same,Bliss interaction score,[4],-0.0949
same,Bliss interaction score,[5],-0.0653
same,Bliss interaction score,[6],-0.0934
same,Bliss interaction score,[7],-0.0489
